According to a melting point compilation (Tetko et al.; mined from patent text by program, amines drawn as free bases though some values may be those of a salt):

| SMILES | melting point [°C] |
| --- | --- |
| CCOC(=O)c1cc(C)nc(NN=C(C)C)c1 | 79 to 82 |
| C=CCc1c(O)ccc2c(C)c(CC(=O)OC)c(=O)oc12 | 160 to 162 |
| Cc1oc2c(NC(=O)c3c(Cl)cccc3Cl)cc(NC(N)=O)cc2c1C | > 250 |
| CC(C)Cc1cc(OCCc2ccsc2)c2[nH]nc(Nc3nccs3)c2c1 | 150 to 151 |
| CCn1ccc(=O)c(O)c1C | 204 to 205 |
| Fc1ccc(Cl)c2sc(CBr)cc12 | 89 to 90 |
| CCCc1c(C(=O)OCC)sc(NC(=O)C(=O)OCC)c1[N+](=O)[O-] | 73 to 75 |
| O=C(Nc1ccc(Oc2ccnc(N3CCOCC3)n2)c2ccccc12)c1cc(F)cc(N2CCOCC2)c1 | 104 to 106 |
| CC1(C)OC(=O)Nc2ccc(-c3cc(C#N)cc(OC(F)(F)F)c3)cc21 | 227 to 228 |
| CCCCN(C)C(N)=C(C#N)C(N)=S | 163 to 165 |
| c1cc(-c2ccncc2)c2sccc2c1 | 71 to 72 |
| COC(=O)c1cc(C(=O)OC)c(O)c([N+](=O)[O-])c1 | 74 to 76 |
| CN(C)c1ccc2c(c1)OCCC2=O | 109 to 120 |
| Oc1ccc(-c2c3ccccc3cc3oc4ccccc4c23)c(O)c1 | 201 to 202 |
| COc1cc(OC)c(C23CC4CC(CC(C4)C2)C3)cc1C=O | 152 to 154 |
| NC(N)=NC(=O)c1ccc2c(c1)S(=O)(=O)CC2O (centres undefined) | 240 to 241 |
| CC1(C)NC(=O)N(c2ccc([N+](=O)[O-])cc2)C1=O | 176 to 177 |
| CSc1ccc(C(=O)O)c(C(F)(F)F)c1F | 108 to 109 |
| O=[N+]([O-])C1([N+](=O)[O-])CN(C(F)(F)F)C1 | 70 to 71 |

Next, values leading:

| melting point [°C] | SMILES |
| --- | --- |
| 177 to 178 | Oc1ccc2c(c1)CN(Cc1ccc(Cl)cc1)CC2 |
| 115 to 117 | CC(=O)OCCc1cc2c(s1)SCCc1cc(=O)n(-c3ccc(Cl)cc3)nc1-2 |
| 207 | COc1ccc2c(=O)ccn(CCN3CCC(NC(=O)OC(C)(C)C)CC3)c2c1 |
| 153 to 156 | O=C(O)COc1ccc(C(=O)c2ccccc2F)c(Cl)c1Cl |
| 157 to 160 | CCOC(=O)C1=C(C(F)(F)F)Nc2n[nH]cc2C1c1ccc(C(=O)OCC)cc1 (centres undefined) |
| 101 | CCOC(=O)N1CCC(N2CCN(CC(=O)Nc3c(C)cccc3C)CC2)CC1Cc1ccc(Cl)c(Cl)c1 (centres undefined) |
| 135 to 138 | COc1cccc(Cn2c(-c3ccccc3)nc(Cl)c2CC(=O)O)c1 |
| 118 to 120 | Cc1ccc(CC2CCC(C)(C)C2(O)Cn2cncn2)cc1 (centres undefined) |
| 192 to 193 | CCOC(=O)N1CCC(=C2c3ccc(Cl)cc3OCc3cc([N+](=O)[O-])cnc32)CC1 |
| 100 to 103 | COc1ccc(-c2ccc(-c3ccccc3)nc2-c2ccc(OCCN3CCCC3)cc2)cc1 |
| 105 to 106 | CC(C)(C)SC1CN(C(=O)NCCN2C(=O)c3ccccc3C2=O)CC1NS(=O)(=O)c1ccc(Oc2ccccc2)cc1 (centres undefined) |
| 122 | CC(C)(C)c1ccc(S(=O)(=O)N2c3ccccc3C[C@H]2C(=O)NCc2cccc(OCCC(=O)O)c2)cc1 |
| 148 to 149 | CCOC(=O)/C=C/c1cn(Cc2ccc(OCc3nc(-c4ccccc4)oc3C)cc2)nc1OCc1ccc(OCc2nc(-c3ccccc3)oc2C)cc1 |
| 195 | CC(C)(C)C1CCc2oc(=O)c(-c3ccccc3)c(O)c2C1 (centres undefined) |
| 234 to 236 | CC(=O)Nc1c(Cl)cc2c(=O)c(C(=O)O)cn3c2c1CCC3C (centres undefined) |
| 177 to 178 | CCCN(CCC)C(=O)Cn1c(=O)[nH]c2cnc(-c3ccc(Cl)cc3)nc21 |
| 249 to 250 | CCCn1c(=O)c2c(nn3cc(-c4cccc(OC)c4)[nH]c23)n(Cc2ccccc2)c1=O |
| 109 | CCOC(CCCNS(=O)(=O)c1ccccc1)OCC |
| 195 to 198 | O=C(O)c1cn(-c2ccc(F)cc2)c2c(F)c(N3CC4=C(CNC4)C3)c(F)cc2c1=O |
| 88 | CC(C)CN(CC(C)C)S(=O)(=O)N[C@@H](Cc1ccc(Oc2nccc3cnccc23)cc1)C(=O)O |
